Laboratory results published in patent US9682060B2, “Small molecules that induce intrinsic pathway apoptosis” (The Board of Trustees of the University of Illinois, priority 2015, dated 2017).
“Also recorded” adds a separate entry of the source.

Legend:
[1] = system: caspase-3/-7 activity in MIA PaCa-2 cells; assay: Whole cell caspase activity assay (Ac-DEVD-AFC); assay type: cell-based, Human; conditions: transfected MIA PaCa-2 cells; 10 μM for 1 hour
Experimental: Whole Cell Caspase Activity Assay.
The caspase activity assay was conducted in 96-well plates using transfected cells (see Example 3 for transfection protocol). Transfected cells were treated with 10 μM Raptinal for 1 hour, which corresponded to 40% of maximal caspase-3/-7 activity achievable by Raptinal. After treatment, the media was replaced with PBS (150 μL) and 50 μL of freshly made 4× caspase assay buffer (containing 20 μM Ac-DEVD-AFC) (Stennicke and Salvesen, 1997). After one hour incubation at room temperature (^˜22° C.) in the dark, the fluorescence of cleaved AFC was read on a spectrofluorometer (Ex: 380 nm, Em: 500 nm). The results were expressed as the relative caspase-3/-7 activity and normalized by designating the vehicle (0.5% DMSO) as 0% activity and Raptinal treatment as 100% activity.

HL-60 VCR = assay: Raptinal toxicity in various cell lines, 24 hour IC50; assay type: cell-based; conditions: HL60/VCR; HL-60 VCR (Human Leukemia Vincristine Resistant); 24 hour incubation; mean ± SD
Experimental: MTS Assay for Suspension Cells.
Serial dilutions of compound in 100% DMSO were added in triplicate (2 μL to each well) to empty wells of a 96-well plate. Suspension cells (HL-60, U-937, SKW 6.4, Jurkat W T, Jurkat CASP8^−/−, Jurkat FADD^−/−, Jurkat Bcl-2) cells in RPMI 1640 media were added to 96-well plates (198 μL containing 4×10^4 cells) and the cells incubated for 24 hours.

U-937 cells = assay: Mitochondrial permeability transition pore (MPTP) calcein-cobalt assay; assay type: cell-based, Human; conditions: calcein-cobalt quenching
Experimental: Mitochondrial Permeability Transition Pore (MPTP) Calcein-Cobalt Assay.
U-937 cells (1×10^6 cells/mL in HBSS) were loaded with calcein-AM (20 nM final concentration) for 45 minutes at 37° C. The cells were washed with HBSS and resuspended in RPMI and plated into a 24-well plate (1×10^6 cells in 1 mL). The cells were treated with Raptinal (10 μM) for 15, 30, 45, 60 and 90 minutes. Cobalt(II) chloride was added (10 μL of 80 mM stock in HBSS) to the cells 10 minutes prior to the end of the time points. The cells were pelleted and resuspended in HBSS (0.5 mL) and calcein fluorescence was measured by flow cytometry. As a positive control for MPTP, ionomycin and calcium were added to calcein-labeled cells in HBSS 10 minutes prior to analysis by flow cytometry.

BT-549 = assay: Raptinal toxicity, 24 hour IC50 (sulforhodamine B assay for adherent cells); assay type: cell-based; conditions: BT-549 (Human Breast Cancer); 24 hour incubation; mean ± SD
Experimental: (§1) Sulforhodamine B Assay for Adherent Cells.
(§2) Serial dilutions of compound in 100% DMSO were added in triplicate (2 μL to each well) to empty wells of a 96-well plate. Adherent cells (3T3, Hs888Lu, MCF-7, HeLa, WT-MEF, 4T1, B16-F10, SK-MEL-5, MIA PaCa2, BT-549, MDA-MB-436, 143B, HOS, H460, H1993) cells were added to each well (5×10^3 cells in 198 μL of RPMI 1640, DMEM or EMEM media). The plates were incubated for 24 hours. The media was removed from the plate and ice-cold trichloroacetic acid (100 μL of 10% w/v trichloroacetic acid) was added to the plates which were then incubated at 4° C. overnight to fix the cells. The trichloroacetic acid was removed and the wells washed with 200 μL of de-ionized water 5 times. Sulforhodamine B (200 μL of 0.04% sodium salt dissolved in 1% acetic acid) was added to each well and the plates incubated at room temperature for 30 min. Excess sulforhodamine B was removed by washing the plates 5 times with 1% acetic acid. The bound dye was released by the addition of unbuffered Tris-base (200 μL of 10 mM solution) and after a 30 min incubation at room temperature the absorbance at 510 nm was measured (Molecular Devices SpectraMax Plus 384 plate reader). The mean IC50 values and standard deviations were determined from three independent experiments.

MIA PaCa-2 = assay: as above; assay type: cell-based; conditions: MIA PaCa-2 (Human Pancreatic Cancer); 24 hour incubation; mean ± SD
Experimental: as §1, §2

143B = assay: as above; assay type: cell-based; conditions: 143B (Human Osteosarcoma); 24 hour incubation; mean ± SD
Experimental: as §1, §2

B16-F10 = assay: as above; assay type: cell-based; conditions: B16-F10 (Mouse Melanoma); 24 hour incubation; mean ± SD
Experimental: as §1, §2

MCF-7 = assay: as above; assay type: cell-based; conditions: MCF7; MCF-7 (Human Breast Cancer); 24 hour incubation; mean ± SD
Experimental: as §1, §2

4T1 = assay: as above; assay type: cell-based; conditions: 4T1 (Mouse Breast Cancer); 24 hour incubation; mean ± SD
Experimental: as §1, §2

Hs888Lu = assay: as above; assay type: cell-based; conditions: Hs888Lu (Human lung fibroblast); 24 hour incubation; mean ± SD
Experimental: as §1, §2

H460 = assay: as above; assay type: cell-based; conditions: NCI-H460; H460 (Human Lung Cancer); 24 hour incubation; mean ± SD
Experimental: as §1, §2

HeLa = assay: as above; assay type: cell-based; conditions: HeLa (Human Cervical Cancer); 24 hour incubation; mean ± SD
Experimental: as §1, §2

MDA-MB-436 = assay: as above; assay type: cell-based; conditions: MDA-MB-436 (Human Breast Cancer); 24 hour incubation; mean ± SD
Experimental: as §1, §2

SK-MEL-5 = assay: as above; assay type: cell-based; conditions: SK-MEL-5 (Human Melanoma); 24 hour incubation; mean ± SD
Experimental: as §1, §2

H1993 = assay: as above; assay type: cell-based; conditions: NCI-H1993; H1993 (Human Lung Cancer); 24 hour incubation; mean ± SD
Experimental: as §1, §2

HOS = assay: as above; assay type: cell-based; conditions: HOS (Human Osteosarcoma); 24 hour incubation; mean ± SD
Experimental: as §1, §2

caspase-3/-7 = assay: Caspase activity assay in cell lysate (Ac-DEVD-AFC); assay type: cell-based; conditions: 10 μM
[2] = Pharmacokinetic profiling in mice; assay type: in vivo, C57BL/6 mice; conditions: 37.5 mg/kg intravenously
Experimental: Pharmacokinetics and Toxicity Profiling in Mice.
All animal studies were performed with prior approval by the University of Illinois at Urbana-Champaign IACUC committee. Eight week old female C57BL/6 mice were used for all pharmacokinetic and toxicity experiments. […]. For toxicity assessment, Raptinal was administered intravenously as a single-dose injection across a dose range of 15-60 mg/kg, and mice were sacrificed 7 days post-injection for evidence of hematologic toxicity (n=3 mice/group).

O=CC1(C2(C=O)c3ccccc3-c3ccccc32)c2ccccc2-c2ccccc21 [Raptinal, [9,9′]bifluorenyl-9,9′-dicarbaldehyde]
caspase-3/-7 activity as share of maximal activity achievable by Raptinal [1]: 40%
IC50 (HL-60 VCR): 1600 ± 500 nM
mitochondrial permeability transition pore (MPTP) formation (U-937 cells): does not induce; also recorded: did not undergo mitochondrial-permeability-transition-pore (MPTP) formation
IC50 (BT-549): 1300 ± 400 nM
IC50 (MIA PaCa-2): 1900 ± 800 nM
IC50 (143B): 1200 ± 500 nM
IC50 (B16-F10): 1600 ± 200 nM
IC50 (MCF-7): 3.4 ± 0.1 µM
IC50 (4T1): 1000 ± 200 nM
IC50 (Hs888Lu): 1700 ± 100 nM
IC50 (H460): 1100 ± 100 nM
IC50 (HeLa): 600 ± 400 nM
IC50 (MDA-MB-436): 1100 ± 100 nM
IC50 (SK-MEL-5): 700 ± 100 nM
IC50 (H1993): 1200 ± 100 nM
IC50 (HOS): 1000 ± 100 nM
induction of caspase-3/-7 activity compared to other apoptosis inducing agents (caspase-3/-7): faster induction of caspase-3/-7 activity and higher peak levels
peak plasma concentration [2]: 134.5 ± 2.2 µM
peak plasma concentration ([2]; mean ± SD, n=3): 54.4 ± 0.9 µg/mL
half-life ([2]; female, C57BL/6, mouse, in vivo, iv, mean ± SD, n=3, read-out: elimination half-life): 92.1 ± 5.8 min
